# Test results: patent US10829473B2, “Modulators of the cystic fibrosis transmembrane conductance regulator protein and methods of use” (AbbVie Overseas S.Á.R.L., priority 2017, dated 2020)
# Like-named read-outs stand apart in the source and are kept apart here. Marks after values point to notes of the source that are not given here.
# Target: T1, F508delCFTR (Homo sapiens, UniProt P13569, DEL508-508)
# T1 construct: expressed in transfected cells; host or cells: CFBE41o- human lung derived epithelial cells (CFBE41o-F508delCFTR-HRP), doxycycline-inducible
# T1 sequence (P13569 with tags, fused parts or gaps DEL508-508): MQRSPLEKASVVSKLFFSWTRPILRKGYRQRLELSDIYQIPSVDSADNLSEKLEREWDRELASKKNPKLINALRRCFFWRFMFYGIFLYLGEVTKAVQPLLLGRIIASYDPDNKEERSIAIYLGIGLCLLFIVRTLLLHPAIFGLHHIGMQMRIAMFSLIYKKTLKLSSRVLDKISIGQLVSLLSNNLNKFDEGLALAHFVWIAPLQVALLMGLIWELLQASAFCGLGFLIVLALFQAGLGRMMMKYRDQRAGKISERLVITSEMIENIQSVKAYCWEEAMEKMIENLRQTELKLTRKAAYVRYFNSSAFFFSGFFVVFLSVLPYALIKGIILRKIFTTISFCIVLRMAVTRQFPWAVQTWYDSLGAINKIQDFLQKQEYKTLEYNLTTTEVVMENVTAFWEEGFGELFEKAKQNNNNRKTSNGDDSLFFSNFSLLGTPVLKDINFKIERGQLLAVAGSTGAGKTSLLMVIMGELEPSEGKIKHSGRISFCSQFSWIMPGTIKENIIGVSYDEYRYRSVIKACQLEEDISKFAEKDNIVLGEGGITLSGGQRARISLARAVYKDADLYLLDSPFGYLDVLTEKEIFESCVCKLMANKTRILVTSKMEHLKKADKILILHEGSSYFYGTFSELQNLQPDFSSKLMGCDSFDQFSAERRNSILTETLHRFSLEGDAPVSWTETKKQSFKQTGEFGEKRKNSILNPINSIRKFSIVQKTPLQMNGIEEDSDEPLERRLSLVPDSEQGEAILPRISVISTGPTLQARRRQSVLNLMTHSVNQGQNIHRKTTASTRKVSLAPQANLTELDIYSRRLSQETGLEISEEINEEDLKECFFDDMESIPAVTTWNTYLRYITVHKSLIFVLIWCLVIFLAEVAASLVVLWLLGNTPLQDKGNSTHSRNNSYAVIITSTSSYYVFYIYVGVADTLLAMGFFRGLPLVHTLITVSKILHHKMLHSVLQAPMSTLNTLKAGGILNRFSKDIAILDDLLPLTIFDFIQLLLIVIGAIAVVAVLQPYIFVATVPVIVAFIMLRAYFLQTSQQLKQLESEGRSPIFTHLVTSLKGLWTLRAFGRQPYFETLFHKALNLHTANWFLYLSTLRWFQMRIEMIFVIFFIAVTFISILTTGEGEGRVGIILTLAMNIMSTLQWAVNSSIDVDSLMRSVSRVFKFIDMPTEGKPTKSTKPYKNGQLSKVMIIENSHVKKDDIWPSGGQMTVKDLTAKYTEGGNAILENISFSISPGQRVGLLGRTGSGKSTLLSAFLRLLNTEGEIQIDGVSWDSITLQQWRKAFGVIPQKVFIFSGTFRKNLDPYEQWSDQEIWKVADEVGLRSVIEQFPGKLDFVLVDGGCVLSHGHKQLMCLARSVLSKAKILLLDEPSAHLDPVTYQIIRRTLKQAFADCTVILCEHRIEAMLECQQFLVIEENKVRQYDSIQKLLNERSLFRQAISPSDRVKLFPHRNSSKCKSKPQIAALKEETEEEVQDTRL
# Assay: Cell Surface Expression-Horse Radish Peroxidase (CSE-HRP) Assay;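 as to EC50 (with co-corrector): co-corrector chromenyl benzoic acid corrector at 2 or 3 µM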;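 as to Maximum % activity (without co-corrector): % of on-plate positive control chromenyl benzoic acid corrector at 2 or 3 µM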
# Type: cell-based
# Details: for Maximum % activity (with co-corrector) / Emax: maximum at any tested concentration; for Emax: read-out: Maximum % activity (without co-corrector)
# Method in brief: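 Corrector compounds were given as 8-point 3-fold series from 20 or 30 μM, with or without a 2 μM co-corrector, for 18-24 h at 33 °C. Surface HRP was read by luminol luminescence as % of positive control; variable-Hill-slope sigmoidal fitting gave EC50 from triplicate plates.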
# [1] = test compound with co-corrector
# [2] = test compound with co-corrector, read-out: EC50 (with co-corrector)
# [3] = test compound without co-corrector
# [4] = test compound without co-corrector, read-out: EC50 (without co-corrector)
# [5] = test compound alone, without co-corrector, read-out: EC50 (without co-corrector)
# [6] = with co-corrector, read-out: EC50 (with co-corrector)
SMILES,Maximum % activity (with co-corrector) [1],EC50 [2] [µM],Emax [3] [%],EC50 [4] [µM],EC50 [5] [µM],Maximum % activity (with co-corrector) (with co-corrector),EC50 [6] [µM],Emax (without co-corrector) [%],EC50 (without co-corrector) [3]
"Cc1cnc(OCC2CC2)c(C2(C(=O)NS(=O)(=O)c3cccc4ncccc34)CC2)c1 [Example GI-96, 1-[2-(cyclopropylmethoxy)-5-methylpyridin-3-yl]-N-(quinoline-5-sulfonyl)cyclopropane-1-carboxamide]",+++ (≥350),< 3,> 150,3 to 10,–,–,–,–,–
"CC(C)Oc1cnc(C2CCC2)cc1C1(C(=O)NS(=O)(=O)c2cccc3[nH]ccc23)CC1 [Example GI-27, 1-{2-cyclobutyl-5-[(propan-2-yl)oxy]pyridin-4-yl}-N-(1H-indole-4-sulfonyl)cyclopropane-1-carboxamide]",–,–,–,–,3 to 10,+++ (≥350),< 3,> 150,–
"COc1cnc(OC(C)C)c(C2(C(=O)NS(=O)(=O)c3cccc4[nH]ccc34)CC2)c1 [Example GI-75, N-(1H-indole-4-sulfonyl)-1-{5-methoxy-2-[(propan-2-yl)oxy]pyridin-3-yl}cyclopropane-1-carboxamide]",+++ (≥350),< 3,> 150,3 to 10,–,–,–,–,–
"O=C(NS(=O)(=O)c1cccc2[nH]ccc12)C1(c2cc(C3CCC3)cnc2OCC2CC2)CC1 [Example GI-98, 1-[5-cyclobutyl-2-(cyclopropylmethoxy)pyridin-3-yl]-N-(1H-indole-4-sulfonyl)cyclopropane-1-carboxamide]",+++ (≥350),< 3,> 150,< 3,–,–,–,–,–
"O=C(NS(=O)(=O)c1cc([N+](=O)[O-])ccc1Cl)C1(c2cccc(Cl)c2)CC1 [Example III-55, N-(2-chloro-5-nitrobenzene-1-sulfonyl)-1-(3-chlorophenyl)cyclopropane-1-carboxamide]",–,–,–,–,> 10,+ (<150),> 10,< 50,–
COC[C@H](C)Oc1ccc(C)cc1C1(C(=O)NS(=O)(=O)c2cccc3ncccc23)CC1 [II-92],–,–,–,–,< 3,+++ (≥350),< 3,> 150,–
"O=C(N1CCc2ccc(S(=O)(=O)NC(=O)C3(c4cccc(Cl)c4)CC3)cc2C1)C(F)(F)F [Example III-72, 1-(3-chlorophenyl)-N-[2-(trifluoroacetyl)-1,2,3,4-tetrahydroisoquinoline-7-sulfonyl]cyclopropane-1-carboxamide]",–,–,–,–,> 10,+ (<150),> 10,< 50,–
"O=C(NS(=O)(=O)Cc1ccccc1)C1(c2ccc(F)cc2)CC1 [Example III-112, 1-(4-fluorophenyl)-N-(phenylmethanesulfonyl)cyclopropane-1-carboxamide]",–,–,–,–,> 10,+ (<150),> 10,< 50,–
O=C(O)c1ccccc1S(=O)(=O)NC(=O)C1(c2ccc(Cl)cc2Cl)CC1 [Example III-67],–,–,–,–,> 10,+ (<150),> 10,< 50,–
"O=C(NS(=O)(=O)c1cccc2[nH]ccc12)C1(c2cc(C3CC3)cnc2N2CCCC2)CC1 [Example GI-34, 1-[5-cyclopropyl-2-(pyrrolidin-1-yl)pyridin-3-yl]-N-(1H-indole-4-sulfonyl)cyclopropane-1-carboxamide]",+++ (≥350),< 3,> 150,3 to 10,–,–,–,–,–
"COc1ccc(C#N)cc1C1(C(=O)NS(=O)(=O)c2cccc3ncccc23)CC1 [Example III-99, 1-(5-cyano-2-methoxyphenyl)-N-(quinoline-5-sulfonyl)cyclopropane-1-carboxamide]",–,–,–,–,3 to 10,+++ (≥350),3 to 10,50 to 150,–
"O=C(NS(=O)(=O)c1cccc2ccccc12)C1(c2cc(Cl)cnc2C(F)(F)F)CC1 [GII-5, 1-[5-chloro-2-(trifluoromethyl)pyridin-3-yl]-N-(naphthalene-1-sulfonyl)cyclopropane-1-carboxamide]",++ (≥150 and <350),3 to 10,50 to 150,3 to 10,–,–,–,–,–
"COCCOc1ncc(C)cc1C1(C(=O)NS(=O)(=O)c2cccc3[nH]ccc23)CC1 [GII-53, N-(1H-indolc-4-sulfonyl)-1-[2-(2-methoxyethoxy)-5-methylpyridin-3-yl]cyclopropane-1-carboxamide]",+++ (≥350),3 to 10,> 150,3 to 10,–,–,–,–,–
"COc1ncc(C(F)(F)F)cc1C1(C(=O)NS(=O)(=O)c2cccn3nccc23)CC1 [Example III-95, 1-[2-methoxy-5-(trifluoromethyl)pyridin-3-yl]-N-(pyrazolo[1,5-a]pyridine-4-sulfonyl)cyclopropane-1-carboxamide]",–,–,–,–,3 to 10,+++ (≥350),3 to 10,> 150,–
"COc1ccc(C)cc1C1(C(=O)NS(=O)(=O)c2cccc3ncccc23)CC1 [Example I-44, 1-(2-methoxy-5-methylphenyl)-N-(quinoline-5-sulfonyl)cyclopropane-1-carboxamide]",–,–,–,–,< 3,+++ (≥350),< 3,> 150,–
"CCOc1cccc(OCC)c1C1(C(=O)NS(=O)(=O)c2cccc3ncccc23)CC1 [Example I-66, 1-(2,6-diethoxyphenyl)-N-(quinoline-5-sulfonyl)cyclopropane-1-carboxamide]",–,–,–,–,< 3,+++ (≥350),< 3,> 150,–
"O=C(NS(=O)(=O)c1ccccc1)C1(c2ccccc2Cl)CC1 [Example III-32, N-(benzenesulfonyl)-1-(2-chlorophenyl)cyclopropane-1-carboxamide]",–,–,–,–,3 to 10,++ (≥150 and <350),3 to 10,< 50,–
"COc1cccc(C2(C(=O)NS(=O)(=O)c3ccccc3C)CCOCC2)c1 [Example III-81, 4-(3-methoxyphenyl)-N-(2-methylbenzene-1-sulfonyl)oxane-4-carboxamide]",–,–,–,–,> 10,+ (<150),> 10,< 50,–
"CCc1cnc(N2CCC(COC)CC2)c(C2(C(=O)NS(=O)(=O)c3cccc4[nH]ccc34)CC2)c1 [Example GI-120, 1-{5-ethyl-2-[4-(methoxymethyl)piperidin-1-yl]pyridin-3-yl}-N-(1H-indole-4-sulfonyl)cyclopropane-1-carboxamide]",+++ (≥350),< 3,> 150,3 to 10,–,–,–,–,–
"Cc1ccc2c(S(=O)(=O)NC(=O)C3(c4cc(N5CCCC5)cnc4OC(C)C)CC3)cccc2n1 [Example GI-63, N-(2-methylquinoline-5-sulfonyl)-1-{2-[(propan-2-yl)oxy]-5-(pyrrolidin-1-yl)pyridin-3-yl}cyclopropane-1-carboxamide]",+++ (≥350),< 3,> 150,< 3,–,–,–,–,–
"COCCOc1cnc(OC)cc1C1(C(=O)NS(=O)(=O)c2cccc3nc(C)ccc23)CC1 [GII-46, 1-[2-methoxy-5-(2-methoxyethoxy)pyridin-4-yl]-N-(2-methylquinoline-5-sulfonyl)cyclopropane-1-carboxamide]",++ (≥150 and <350),3 to 10,50 to 150,–,–,–,–,–,++^a
"COc1ccc(C2CCC2)cc1C1(C(=O)NS(=O)(=O)c2cccc3ncccc23)CC1 [Example I-17, 1-(5-cyclobutyl-2-methoxyphenyl)-N-(quinoline-5-sulfonyl)cyclopropane-1-carboxamide]",–,–,–,–,< 3,+++ (≥350),< 3,> 150,–
"COCC1(c2ccc(OC)c(C3(C(=O)NS(=O)(=O)c4cccc5nc(C)ccc45)CC3)c2)CC1 [Example I-74, 1-{2-methoxy-5-[1-(methoxymethyl)cyclopropyl]phenyl}-N-(2-methylquinoline-5-sulfonyl)cyclopropane-1-carboxamide]",–,–,–,–,< 3,+++ (≥350),< 3,> 150,–
Cc1cnc(F)cc1C1(C(=O)NS(=O)(=O)c2cccc3ncccc23)CC1 [GIII-16],+ (<150),> 10,< 50,> 10,–,–,–,–,–
"COc1ccc(C2CC2)cc1C1(C(=O)NS(=O)(=O)c2cccc3ccccc23)CC1 [Example I-12, 1-(5-cyclopropyl-2-methoxyphenyl)-N-(naphthalene-1-sulfonyl)cyclopropane-1-carboxamide]",–,–,–,–,< 3,+++ (≥350),< 3,> 150,–
"CCOc1ccc(C)cc1C1(C(=O)NS(=O)(=O)c2cccc3nc(N)ccc23)CC1 [Example I-89, N-(2-aminoquinoline-5-sulfonyl)-1-(2-ethoxy-5-methylphenyl)cyclopropane-1-carboxamide]",–,–,–,–,< 3,+++ (≥350),< 3,> 150,–
"CN(C)c1ncc(C(F)(F)F)cc1C1(C(=O)NS(=O)(=O)c2cccc3ncccc23)CC1 [Example I-57, 1-[2-(dimethylamino)-5-(trifluoromethyl)pyridin-3-yl]-N-(quinoline-5-sulfonyl)cyclopropane-1-carboxamide]",–,–,–,–,< 3,+++ (≥350),< 3,> 150,–
